Reference: patent US20240116985A1, “STAPLED PEPTIDES AND METHODS THEREOF” (priority 2020, published 2024)

Tests used:
[1] = molecular target: T1, full-length B-Catenin (Uniprot ID P35222) (Homo sapiens, UniProt P35222); assay: Alphascreen binding assay (beta-catenin / biotin-TCF4 10-53)
T1 construct: 65 nM full-length B-Catenin (Uniprot ID P35222)
T1 sequence (P35222 1-781): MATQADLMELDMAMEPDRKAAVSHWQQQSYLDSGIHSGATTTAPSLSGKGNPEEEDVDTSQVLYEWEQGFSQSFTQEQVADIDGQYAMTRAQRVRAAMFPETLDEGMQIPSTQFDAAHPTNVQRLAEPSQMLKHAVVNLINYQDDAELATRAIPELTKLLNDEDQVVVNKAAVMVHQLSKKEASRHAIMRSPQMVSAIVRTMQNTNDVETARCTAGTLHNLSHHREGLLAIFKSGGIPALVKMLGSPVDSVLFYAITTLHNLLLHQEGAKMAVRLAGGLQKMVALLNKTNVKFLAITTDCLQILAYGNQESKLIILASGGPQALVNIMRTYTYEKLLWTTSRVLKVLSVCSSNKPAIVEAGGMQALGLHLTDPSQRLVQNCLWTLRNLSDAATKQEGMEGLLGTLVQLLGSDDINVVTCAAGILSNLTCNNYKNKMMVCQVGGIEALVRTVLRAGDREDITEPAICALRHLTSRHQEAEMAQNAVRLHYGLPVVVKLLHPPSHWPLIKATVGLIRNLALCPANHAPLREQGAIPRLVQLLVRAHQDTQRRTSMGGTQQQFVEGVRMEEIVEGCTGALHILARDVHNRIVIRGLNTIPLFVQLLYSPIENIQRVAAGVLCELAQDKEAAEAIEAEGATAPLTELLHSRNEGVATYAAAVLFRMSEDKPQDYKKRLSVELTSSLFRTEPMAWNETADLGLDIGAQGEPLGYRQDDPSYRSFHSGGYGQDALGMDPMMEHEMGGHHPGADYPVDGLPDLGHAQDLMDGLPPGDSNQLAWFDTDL
Procedure, shortened: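 Final concentrations: 65 nM full-length human β-catenin plus 10 nM biotin-TCF4(10-53) peptide, test peptide 3-fold from 10 uM to 5 nM, preincubated 15 min at 20 °C in Tris pH 8.0/250 mM NaCl buffer. Nickel-chelate AlphaScreen donor/acceptor beads then added for 60 min in the dark; duplicate reads fitted to 1:1 binding model with Hill slope.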

[2] = CHI Log D procedure; assay type: physicochemical; details: for CHI Log D: pH 7.4; for chromatographic logD: pH 7.4, CHI Log D

EC50 [1]	CHI Log D [2]	chromatographic logD [2]	Compound
4.12 µM	1.401	–	CC(=O)N[C@@H](Cc1ccccc1)C(=O)N[C@@H](CC(=O)O)C(=O)N[C@@H](C)C(=O)N[C@]1(C)CCCCCCC=CCOC(=O)N2CC[C@@](C(=O)N[C@@H](Cc3ccccc3)C(=O)N[C@@H](Cc3c[nH]c4ccccc34)C(=O)N[C@@H](CCC(N)=O)C(N)=O)(C2)NC(=O)[C@H]([C@@H](C)O)NC(=O)[C@H](Cc2ccccc2)NC(=O)[C@H](C)NC(=O)[C@H](C)NC(=O)[C@H](CC(=O)O)NC(=O)[C@H](CC(=O)O)NC1=O [I-224, Ac-Phe-Asp-Ala-R8-Asp-Asp-Ala-Ala-Phe-Thr-PyrS-Phe-Trp-Gln-NH2]
2.96 µM	3.101	–	CC(=O)N1CCC[C@]12CC=CCCCC1(CCCC=CCCCCCC[C@@](C)(C(=O)N[C@@H](Cc3ccccc3)C(=O)N[C@@H](Cc3c[nH]c4ccccc34)C(=O)N[C@@H](CCC(N)=O)C(N)=O)NC(=O)[C@H](C(C)C)NC(=O)[C@H](Cc3ccccc3)NC(=O)[C@H](C)NC(=O)[C@H](C)NC(=O)[C@H](Cc3cccc(C(F)(F)F)c3)NC(=O)[C@H](CC(=O)O)NC1=O)NC(=O)[C@H](C)NC(=O)[C@H](CC(=O)O)NC2=O (stereo partly drawn) [I-244, Ac-PL3-Asp-Ala-B5-Asp-3F3MeF-Ala-Ala-Phe-Val-S8-Phe-Trp-Gln-NH2]
5.9 µM	–	2.82	CC(=O)N1CCC[C@]12CC=CCCCC1(CCCC=CCCCCCC[C@@](C)(C(=O)N[C@@H](Cc3ccccc3)C(=O)N[C@@H](Cc3c[nH]c4ccccc34)C(=O)N[C@@H](CCC(N)=O)C(N)=O)NC(=O)[C@H](C(C)C)NC(=O)[C@H](Cc3ccccc3)NC(=O)[C@H](C)NC(=O)[C@H](C)NC(=O)[C@H](Cc3c[nH]c4ccccc34)NC(=O)[C@H](CC(=O)O)NC1=O)NC(=O)[C@H](C)NC(=O)[C@H](CC(=O)O)NC2=O (stereo partly drawn) [I-233, Ac-PL3-Asp-Ala-B5-Asp-Trp-Ala-Ala-Phe-Val-S8-Phe-Trp-Gln-NH2]
1.96 µM	2.232	–	CC(=O)N1CCC[C@]12CC=CCCCC1(CCCC=CCCCCCC[C@@](C)(C(=O)N[C@@H](Cc3ccc(C(F)(F)F)cc3)C(=O)N[C@@H](Cc3c[nH]c4ccccc34)C(=O)N[C@@H](CCC(N)=O)C(N)=O)NC(=O)[C@H](C(C)C)NC(=O)[C@H](Cc3ccccc3)NC(=O)[C@H](C)NC(=O)[C@H](C)NC(=O)[C@H](CC(=O)O)NC(=O)[C@H](CC(=O)O)NC1=O)NC(=O)[C@H](C)NC(=O)[C@H](CC(=O)O)NC2=O (stereo partly drawn) [I-254, Ac-PL3-Asp-Ala-B5-Asp-Asp-Ala-Ala-Phe-Val-S8-4F3MeF-Trp-Gln-NH2]

Continued, compound first:

Compound	EC50 [1]	CHI Log D [2]	chromatographic logD [2]
CC(=O)N1CCC[C@]12CC=CCCCC1(CCCC=CCCCCCC[C@@](C)(C(=O)N[C@@H](Cc3ccccc3)C(=O)N[C@@H](CC3CNc4ccccc43)C(=O)N[C@@H](CCC(N)=O)C(N)=O)NC(=O)[C@H](C(C)C)NC(=O)[C@H](Cc3ccccc3)NC(=O)[C@H](C)NC(=O)[C@H](C)NC(=O)[C@H](CCC(=O)O)NC(=O)[C@H](CC(=O)O)NC1=O)NC(=O)[C@H](C)NC(=O)[C@H](CC(=O)O)NC2=O (stereo partly drawn) [I-167, Ac-PL3-Asp-Ala-B5-Asp-Glu-Ala-Ala-Phe-Val-S8-Phe-H2Trp-Gln-NH2]	6.2 µM	1.927	–
CC(=O)N[C@@H](Cc1ccccc1)C(=O)N[C@@H](CC(=O)O)C(=O)N[C@@H](C)C(=O)N[C@]1(C)CCCCCC=CCOC(=O)N2CC[C@@](C(=O)N[C@@H](Cc3ccccc3)C(=O)N[C@@H](Cc3c[nH]c4ccccc34)C(=O)N[C@@H](CCC(N)=O)C(N)=O)(C2)NC(=O)[C@H](C(C)C)NC(=O)[C@H](Cc2ccccc2)NC(=O)[C@H](C)NC(=O)[C@H](C)NC(=O)[C@H](CC(=O)O)NC(=O)[C@H](CC(=O)O)NC1=O [I-31, Ac-Phe-Asp-Ala-R7-Asp-Asp-Ala-Ala-Phe-Val-PyrS-Phe-Trp-Gln-NH2]	7.22 µM	1.245	–
CC(=O)N1CCC[C@]12CC=CCCCC1(CCCC=CCCCCCC[C@@](C)(C(=O)N[C@@H](Cc3ccccc3)C(=O)N[C@@H](Cc3c[nH]c4ccc(C5CC5)cc34)C(=O)N[C@@H](CCC(N)=O)C(N)=O)NC(=O)[C@H](C(C)C)NC(=O)[C@H](Cc3ccccc3)NC(=O)[C@H](C)NC(=O)[C@H](C)NC(=O)[C@H](CCC(=O)O)NC(=O)[C@H](CC(=O)O)NC1=O)NC(=O)[C@H](C)NC(=O)[C@H](CC(=O)O)NC2=O (stereo partly drawn) [I-171, Ac-PL3-Asp-Ala-B5-Asp-Glu-Ala-Ala-Phe-Val-S8-Phe-5CpW-Gln-NH2]	2.07 µM	2.204	–
CC(=O)N1CCC[C@]12CC=CCCCC1(CCCC=CCCCCCC[C@@](C)(C(=O)N[C@@H](Cc3ccccc3)C(=O)N[C@@H](Cc3c[nH]c4ccc(F)cc34)C(=O)N[C@@H](CCC(N)=O)C(N)=O)NC(=O)[C@H](C(C)C)NC(=O)[C@H](Cc3ccccc3)NC(=O)[C@H](C)NC(=O)[C@H](C)NC(=O)[C@H](CCC(=O)O)NC(=O)[C@H](CC(=O)O)NC1=O)NC(=O)[C@H](C)NC(=O)[C@H](CC(=O)O)NC2=O (stereo partly drawn) [I-146, Ac-PL3-Asp-Ala-B5-Asp-Glu-Ala-Ala-Phe-Val-S8-Phe-5FW-Gln-NH2]	1.22 µM	–	2
CC(=O)N1CCC[C@]12CC=CCCCC1(CCCC=CCCCCCC[C@@](C)(C(=O)N[C@@H](Cc3ccccc3)C(=O)N[C@@H](Cc3c[nH]c4ccccc34)C(=O)N[C@@H](CCC(N)=O)C(N)=O)NC(=O)[C@H](C(C)C)NC(=O)[C@H](Cc3ccccc3)NC(=O)[C@H](C)NC(=O)[C@H](C)NC(=O)[C@H](CCC(=O)O)NC(=O)[C@H](CC(=O)O)NC1=O)NC(=O)[C@H](C)NC(=O)[C@H](CC(N)=O)NC2=O (stereo partly drawn) [I-199, Ac-PL3-Asn-Ala-B5-Asp-Glu-Ala-Ala-Phe-Val-S8-Phe-Trp-Gln-NH2]	0.796 µM	2.262	–
CC(=O)N1CCC[C@]12CC=CCCCC1(CCCC=CCCCCCC[C@@](C)(C(=O)N[C@@H](Cc3ccccc3)C(=O)N[C@@](C)(Cc3c[nH]c4ccccc34)C(=O)N[C@@H](CCC(N)=O)C(N)=O)NC(=O)[C@H](C(C)C)NC(=O)[C@H](Cc3ccccc3)NC(=O)[C@H](C)NC(=O)[C@H](C)NC(=O)[C@H](CCC(=O)O)NC(=O)[C@H](CC(=O)O)NC1=O)NC(=O)[C@H](C)NC(=O)[C@H](CC(=O)O)NC2=O (stereo partly drawn) [I-136, Ac-PL3-Asp-Ala-B5-Asp-Glu-Ala-Ala-Phe-Val-S8-Phe-aMeW-Gln-NH2]	3.3 µM	2.136	–
CC(=O)N[C@@H](Cc1ccccc1)C(=O)N[C@@H](CC(=O)O)C(=O)N[C@@H](C)C(=O)NC12CN(C1)C(=O)OCC=CCCCCCC[C@@](C)(C(=O)N[C@@H](Cc1ccccc1)C(=O)N[C@@H](Cc1c[nH]c3ccccc13)C(=O)N[C@@H](CCC(N)=O)C(N)=O)NC(=O)[C@H](C(C)C)NC(=O)[C@H](Cc1ccccc1)NC(=O)[C@H](C)NC(=O)[C@H](C)NC(=O)[C@H](CC(=O)O)NC(=O)[C@H](CC(=O)O)NC2=O [I-35, Ac-Phe-Asp-Ala-Az-Asp-Asp-Ala-Ala-Phe-Val-S8-Phe-Trp-Gln-NH2]	9.54 µM	–	1.33
CC(=O)N[C@@H](Cc1ccccc1)C(=O)N[C@@H](CC(=O)O)C(=O)N[C@@H](C)C(=O)N[C@]1(C)CCCCCCC=CCOC(=O)N2CC[C@@](C(=O)N[C@@H](Cc3ccc(C(=O)O)cc3)C(=O)N[C@@H](Cc3c[nH]c4ccccc34)C(=O)N[C@@H](CCC(N)=O)C(N)=O)(C2)NC(=O)[C@H](C(C)C)NC(=O)[C@H](Cc2ccccc2)NC(=O)[C@H](C)NC(=O)[C@H](C)NC(=O)[C@H](CC(=O)O)NC(=O)[C@H](CC(=O)O)NC1=O [I-110, Ac-Phe-Asp-Ala-R8-Asp-Asp-Ala-Ala-Phe-Val-PyrS-4COOHF-Trp-Gln-NH2]	8.5 µM	0.769	–
